From patent US10590129B2 (Incozen Therapeutics Pvt. Ltd., priority 2010, dated 2020) come the findings set out here.

SMILES strings stand for the structures. A value given as a limit tells only on which side of the number the result lay.

One series relates to MKN-45 cells. The series can be described thus: Inhibition of MKN-45 proliferation (MTT). The class given is cell-based, human. The note with it: Homo sapiens, MKN-45, MKN-45 proliferation. Summed up:
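Viability measured by MTT dye reduction on day 5 after compound addition on day 2 to MKN-45 gastric adenocarcinoma cells (high Met expression) seeded on day 1 in complete medium.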

As usually defined, the melting point is the temperature of the solid-liquid transition. What is called inhibition is the percentage by which the read-out fell short of the control. Consider `OCCn1cc(-c2ccc3ncn(Cc4ccc5ncccc5c4)c3n2)cn1` [Ex 150, 2-(4-(3-(Quinolin-6-ylmethyl)-3H-imidazo[4,5-b]pyridin-5-yl)-1H-pyrazol-1-yl)ethanol], for which the melting point was in the range of 160 to 163 °C. The compound also gave an inhibition at 1 µM with MKN-45 cells below 25%.
On to `OCCNc1ccc2nnn(Cc3ccc4ncccc4c3)c2n1` [Ex 151, 2-(3-(Quinolin-6-ylmethyl)-3H-[1,2,3]triazolo[4,5-b]pyridin-5-ylamino)ethanol], for which the melting point lay in the range of 184 to 186 °C. The inhibition at 1 µM in the series with MKN-45 cells lay within 50 to 75%.
In general, GI50 refers to the concentration giving 50% growth inhibition. Lower therefore signals greater sensitivity of the cells. As for `c1cnc2ccc(Cn3nnc4ccc(-n5ccnc5)nc43)cc2c1` [Ex 152, 6-((5-(1H-Imidazol-1-yl)-3H-[1,2,3]triazolo[4,5-b]pyridin-3-yl)methyl)quinoline], the melting point fell in the range of 227 to 230 °C. Further, in the series on MKN-45 cells, the GI50 is 0.15 to 0.5 µM.
As to `c1cnc2ccc(Cn3nnc4ccc(-c5cnn(C6CCNCC6)c5)nc43)cc2c1` [Ex 157, 6-((5-(1-(Piperidin-4-yl)-1H-pyrazol-4-yl)-3H-[1,2,3]triazolo[4,5-b]pyridin-3-yl)methyl)quinoline], the melting point lay within 188 to 191 °C. Besides, the GI50 in the series with MKN-45 cells was below 1 µM.
The compound `Cl.Fc1ccc(F)c(Cn2nnc3ccc(-c4cnn(C5CCNCC5)c4)nc32)c1Cl` [Ex 167, 3-(2-Chloro-3,6-difluorobenzyl)-5-(1-(piperidin-4-yl)-1H-pyrazol-4-yl)-3H-[1,2,3]triazolo[4,5-b]pyridine hydrochloride] returned a melting point of 85 to 87 °C. Moreover, the inhibition at 1 µM in the series with MKN-45 cells lay in the range of 25 to 50%.
As for `Nc1ncc(-c2ccc3nnn(Cc4ccc5ncccc5c4)c3n2)cn1` [Ex 180, 5-(3-(Quinolin-6-ylmethyl)-3H-[1,2,3]triazolo[4,5-b]pyridin-5-yl)pyrimidin-2-amine], the melting point is 244 to 246 °C. For the same compound, in the series with MKN-45 cells, the inhibition at 0.1 µM was below 25% and the inhibition at 1 µM was 25 to 50%.
Take `O=Cc1cc(-c2ccc3nnn(Cc4ccc5ncccc5c4)c3n2)cs1` [Ex 182, 4-(3-(Quinolin-6-ylmethyl)-3H-[1,2,3]triazolo[4,5-b]pyridin-5-yl)thiophene-2-carbaldehyde]: the melting point was 195 to 197 °C. In the series with MKN-45 cells, this compound gave an inhibition at 0.1 µM below 25% and an inhibition at 1 µM of 25 to 50%.
Regarding `COc1ncc(-c2ccc3nnn(Cc4ccc5ncccc5c4)c3n2)cn1` [Ex 183, 6-((5-(2-Methoxypyrimidin-5-yl)-3H-[1,2,3]triazolo[4,5-b]pyridin-3-yl)methyl)quinoline], the melting point was in the range of 201 to 203 °C. Further, the inhibition at 0.1 µM with MKN-45 cells is below 25%.
Compound `c1cnc2ccc(Cn3nnc4ccc(-c5ccc6c(c5)OCO6)nc43)cc2c1` [Ex 184, 6-((5-(Benzo[d][1,3]dioxol-5-yl)-3H-[1,2,3]triazolo[4,5-b]pyridin-3-yl)methyl)quinoline] displayed a melting point of 179 to 181 °C. In the series with MKN-45 cells, this compound registered an inhibition at 0.1 µM below 25% and an inhibition at 1 µM below 25%.
Regarding `c1cnc2ccc(Cn3nnc4ccc(-c5ccc6c(c5)CCO6)nc43)cc2c1` [Ex 185, 6-((5-(2,3-Dihydrobenzofuran-5-yl)-3H-[1,2,3]triazolo[4,5-b]pyridin-3-yl)methyl) quinoline], the melting point was 131 to 133 °C. Moreover, in the series with MKN-45 cells, the inhibition at 0.1 µM was below 25% and the inhibition at 1 µM was below 25%.
For `Nc1ccc(-c2ccc3nnn(Cc4ccc5ncccc5c4)c3n2)cn1` [Ex 186, 5-(3-(Quinolin-6-ylmethyl)-3H-[1,2,3]triazolo[4,5-b]pyridin-5-yl)pyridin-2-amine], the melting point was 194 to 197 °C. In the series with MKN-45 cells, this compound displayed an inhibition at 0.1 µM below 25% and an inhibition at 1 µM below 25%.
Regarding `FCCn1cc(-c2ccc3nnn(Cc4ccc5ncccc5c4)c3n2)cn1` [Ex 187, 6-((5-(1-(2-fluoroethyl)-1H-pyrazol-4-yl)-3H-[1,2,3]triazolo[4,5-b]pyridin-3-yl)methyl)quinoline], the melting point lay within 168 to 170 °C. In the series with MKN-45 cells, this compound returned a GI50 of at most 0.05 µM and an inhibition at 0.1 µM of 75 to 100%.
Consider `OCc1cc(-c2ccc3nnn(Cc4ccc5ncccc5c4)c3n2)cs1` [Ex 188, (4-(3-(Quinolin-6-ylmethyl)-3H-[1,2,3]triazolo[4,5-b]pyridin-5-yl)thiophen-2-yl) methanol], for which the melting point was in the range of 188 to 191 °C. In the series on MKN-45 cells, the GI50 lay within 0.05 to 0.15 µM and the inhibition at 0.1 µM lay in the range of 75 to 100%.
In turn, `CCc1n[nH]c2cc(-c3ccc4nnn(Cc5ccc6ncccc6c5)c4n3)ccc12` [Ex 191, 6-((5-(3-ethyl-1H-indazol-6-yl)-3H-[1,2,3]triazolo[4,5-b]pyridin-3-yl)methyl)quinoline] came in with a melting point of 211 to 213 °C. Moreover, in the series on MKN-45 cells, the inhibition at 0.1 µM was 25 to 50% and the inhibition at 1 µM is 25 to 50%.
The compound `Cc1csc(-c2ccc3nnn(Cc4ccc5ncccc5c4)c3n2)c1` [Ex 193, 6-((5-(4-Methylthiophen-2-yl)-3H-[1,2,3]triazolo[4,5-b]pyridin-3-yl)methyl)quinoline] yielded a melting point of 153 to 156 °C. In the series on MKN-45 cells, this compound gave an inhibition at 0.1 µM below 25% and an inhibition at 1 µM of 50 to 75%.
For `Cc1ccc(-c2ccc3nnn(Cc4ccc5ncccc5c4)c3n2)s1` [Ex 194, 6-((5-(5-Methylthiophen-2-yl)-3H-[1,2,3]triazolo[4,5-b]pyridin-3-yl)methyl)quinoline], the melting point was 154 to 156 °C. Further, in the series with MKN-45 cells, the inhibition at 0.1 µM was below 25% and the inhibition at 1 µM was 50 to 75%.
As for `c1cnc2ccc(Cn3nnc4ccc(-c5ccc(N6CCOCC6)nc5)nc43)cc2c1` [Ex 195, 4-(5-(3-(Quinolin-6-ylmethyl)-3H-[1,2,3]triazolo[4,5-b]pyridin-5-yl)pyridin-2-yl)morpholine], the melting point is 183 to 185 °C. In the series with MKN-45 cells, the inhibition at 0.1 µM was in the range of 25 to 50% and the inhibition at 1 µM lay within 50 to 75%.
In the same order, the values of `c1cnc2ccc(Cn3nnc4ccc(-c5ccc(N6CCCCC6)nc5)nc43)cc2c1` [Ex 196, 6-((5-(6-(Piperidin-1-yl)pyridin-3-yl)-3H-[1,2,3]triazolo[4,5-b]pyridin-3-yl)methyl)quinoline] are 133 to 135 °C, below 25% and below 25%.
In turn, `CCn1cc(-c2ccc3nnn(Cc4ccc5ncccc5c4)c3n2)cn1` [Ex 197, 6-((5-(1-Ethyl-1H-pyrazol-4-yl)-3H-[1,2,3]triazolo[4,5-b]pyridin-3-yl)methyl)quinoline] gave a melting point of 132 to 134 °C. For the same compound, the inhibition at 0.1 µM in the series with MKN-45 cells fell in the range of 25 to 50%.
For the compound `CC(C)n1cc(-c2ccc3nnn(Cc4ccc5ncccc5c4)c3n2)cn1` [Ex 198, 6-((5-(1-Isopropyl-1H-pyrazol-4-yl)-3H-[1,2,3]triazolo[4,5-b]pyridin-3-yl)methyl)quinoline], the melting point was in the range of 126 to 128 °C. In addition, the inhibition at 0.1 µM in the series on MKN-45 cells was below 25%.
On to `CC(C)Cn1cc(-c2ccc3nnn(Cc4ccc5ncccc5c4)c3n2)cn1` [Ex 199, 6-((5-(1-Isobutyl-1H-pyrazol-4-yl)-3H-[1,2,3]triazolo[4,5-b]pyridin-3-yl)methyl)quinoline], for which the melting point lay within 160 to 163 °C. The compound further had an inhibition at 0.1 µM in the series with MKN-45 cells below 25%.
